# Values joined by “and” are separate entries in the source; they are usually repeats but may differ in a detail not shown here. Identical values can stand only once.
# How the values were obtained:
# [1] = set-up: method as in PMID 32601208; conditions: single agent and in combination with targeted and cytotoxic therapies; cited from earlier work
# [2] = Phase I/II safety and tolerability: DLTs and treatment-related adverse events (CTCAE v4.03); type: in vivo
# Excerpt: The study was an open-label, nonrandomized, phase I/II dose-escalation study with planned expansion cohorts. […] Part B was a potential expansion phase at the MTD/RP2D to determine preliminary evidence of antitumor activity and to confirm safety among patients stratified by preselected cancer indications.
# Part A was based on a two-parameter Bayesian logistic regression model (BLRM) to investigate safety and tolerability of sequentially enrolled dose cohorts of 3–6 patients. The first 2 participants of each cohort were enrolled in a staggered approach with at least 1 day apart between first dosing.
# 12-lead electrocardiograms and Holter safety monitoring with periodic cardiac imaging was employed. Efficacy assessments used RECIST v1.1 applied to CT/MRI scans performed at screening and every 8 weeks; or evaluated complete remission with complete hematologic recovery by National Comprehensive Cancer Network guideline criteria for T-ALL/T-LBL. Adherence to study drug administration was evaluated using both patient diaries and capsule counts.
# Secondary endpoints included assessment of clinical benefit rate [CBR; defined as achieving complete and/or partial response and/or stable disease (SD) at prespecified benchmarks], duration of response, progression-free survival (PFS) and overall survival (OS), and plasma pharmacokinetics.
# The SS was the primary population for all safety and efficacy analyses, except for determination of dose-DLT relationship.
# Under this model, and accounting for dropouts and some additional patients enrolled to each cohort, approximately 55 patients were anticipated to enroll in dose escalation and approximately 45 patients in the confirmatory phase. […] All statistical analyses were analyzed using SAS v9.4 software.
# [3] = N = 79, per-patient, CTCAE v4.03
smiles,measurement,setting,value
CC(C)(C)c1ccc(Oc2ccc(N)cn2)cc1 [CB-103],Anticancer activity,[1],potent anticancer activity
same,Number of DLTs observed,[2]; 12 dose-escalation cohorts (n = 64),Two
same,Recommended phase II dose (RP2D),"[2]; 5 days on, 2 days off weekly",500 mg twice daily
same,N DLT,"[2]; CH8 522 mg QD, N=4",1
same,N DLT,"[2]; CH11 400 mg BID, 5/2, N=6",1
same,Grade 4 TRAE elevated lipase,[2]; N = 79,^aThe two TRAEs classified as grade 4 were elevated lipase (one event) and elevated liver function tests (one event).
same,Grade 4 TRAE elevated liver function tests,[2]; N = 79,^aThe two TRAEs classified as grade 4 were elevated lipase (one event) and elevated liver function tests (one event).
same,"TRAE Anemia, any grade",[2]; [3],13 (16) N (%)
same,"TRAE Anemia, grade 1–2",[2]; [3],9 (11) N (%)
same,"TRAE Anemia, grade 3",[2]; [3],4 (5) N (%)
same,"TRAE Any AE, any grade",[2]; [3],60 (76) N (%)
same,"TRAE Any AE, grade 1–2",[2]; [3],47 (60) N (%)
same,"TRAE Any AE, grade 3",[2]; [3],13 (16) N (%)
same,"TRAE Any AE, grade 4",[2]; [3],2 (3) N (%)
same,"TRAE Blood and lymphatic system disorders, any grade",[2]; [3],13 (17) N (%)
same,"TRAE Blood and lymphatic system disorders, grade 1–2",[2]; [3],9 (11) N (%)
same,"TRAE Blood and lymphatic system disorders, grade 3",[2]; [3],4 (5) N (%)
same,"TRAE Diarrhea, any grade",[2]; [3],10 (13) N (%)
same,"TRAE Diarrhea, grade 1–2",[2]; [3],10 (13) N (%)
same,"TRAE Dyschromatopsia, any grade",[2]; [3],15 (19) N (%)
same,"TRAE Dyschromatopsia, grade 1–2",[2]; [3],15 (19) N (%)
same,"TRAE Dyspepsia, any grade",[2]; [3],10 (13) N (%)
same,"TRAE Dyspepsia, grade 1–2",[2]; [3],10 (13) N (%)
same,"TRAE Eye disorders, any grade",[2]; [3],37 (47) N (%)
same,"TRAE Eye disorders, grade 1–2",[2]; [3],36 (46) N (%)
same,"TRAE Eye disorders, grade 3",[2]; [3],1 (1) N (%)
same,"TRAE Fatigue, any grade",[2]; [3],9 (11) N (%)
same,"TRAE Fatigue, grade 1–2",[2]; [3],9 (11) N (%)
same,"TRAE Gastrointestinal disorders, any grade",[2]; [3],39 (49) N (%)
same,"TRAE Gastrointestinal disorders, grade 1–2",[2]; [3],38 (48) N (%)
same,"TRAE Gastrointestinal disorders, grade 3",[2]; [3],1 (1) N (%)
same,"TRAE General disorders and administration site conditions, grade 1–2",[2]; [3],9 (11) N (%)
same,"TRAE General disorders and administration site conditions, grade 3",[2]; [3],1 (1) N (%)
same,"TRAE Laboratory investigations, any grade",[2]; [3],13 (16) N (%)
same,"TRAE Laboratory investigations, grade 1–2",[2]; [3],8 (10) N (%)
same,"TRAE Laboratory investigations, grade 3",[2]; [3],5 (6) N (%)
same,"TRAE Nausea, any grade",[2]; [3],17 (22) N (%)
same,"TRAE Nausea, grade 1–2",[2]; [3],17 (22) N (%)
same,"TRAE Skin and subcutaneous tissue disorders, any grade",[2]; [3],8 (10) N (%)
same,"TRAE Skin and subcutaneous tissue disorders, grade 1–2",[2]; [3],6 (8) N (%)
same,"TRAE Skin and subcutaneous tissue disorders, grade 3",[2]; [3],2 (3) N (%)
same,"TRAE Vision blurred, any grade",[2]; [3],12 (15) N (%)
same,"TRAE Vision blurred, grade 1–2",[2]; [3],12 (15) N (%)
same,"TRAE Visual impairment, any grade",[2]; [3],8 (10) N (%)
same,"TRAE Visual impairment, grade 1–2",[2]; [3],7 (9) N (%)
same,"TRAE Visual impairment, grade 3",[2]; [3],1 (1) N (%)
same,"TRAE Vomiting, any grade",[2]; [3],9 (11) N (%)
same,"TRAE Vomiting, grade 1–2",[2]; [3],8 (10) N (%)
same,"TRAE Vomiting, grade 3",[2]; [3],1 (1) N (%)
same,"Grade 3 or 4 TRAEs, number reported",[2]; SS population (n = 79),26
same,Patients who interrupted or required dose adjustment,[2]; all patients,32 patients (%)
same,DLT: patients with asymptomatic grade 3 elevation in gamma-glutamyl transferase leading to drug discontinuation,[2]; cohort 8 (552 mg daily dose),1 patient
same,DLT observed in cohort 11,"[2]; cohort 11 (400 mg twice daily, 5 days on and 2 off each week), dose interruption, continued at reduced dose",grade 3 visual impairment
same,MTD,[2]; dose escalation up to 500 mg twice daily 5/2,not reached
same,Resumed at the dose prior to interruption,[2]; in vivo,81 % of the time
same,Deaths related to study treatment,[2]; n = 79,no drug-related deaths
same,Grade 3–4 TRAE anemia,[2]; n = 79,7 events
same,Grade 3–4 TRAE elevated liver function tests,[2]; n = 79,5 events
same,Grade 3–4 TRAE elevated serum amylase or lipase,[2]; n = 79,3 events
same,Patients with grade 3–4 TRAEs,[2]; n = 79,15 patients (%) and 15 (19%) patients (%)
same,Median duration of interruption for TRAEs,[2]; range: 1–14,5 days
